Series [1] deals with cynomolgus monkeys. Kind of series: Food intake and emesis study in cynomolgus monkeys. Format: in vivo, cynomolgus monkey. The method, then: One male and one female cynomolgus monkeys (age: 4 years old, body weight: 3.9 kg in male, 2.7 kg in female) were used. The monkeys were housed in individual cages with a 12 hr:12 hr light-dark schedule at 22-27° C., and given 100 g of pellet diet (Oriental Yeast Co. Ltd) once daily. The diet was supplied after completion of the clinical observation at 8 hour post dose on the days of dosing. On other days during the experimental period, the diet was supplied each day after the completion of examinations and the remaining diet was withdrawn on the following morning. P41 was dissolved in 0.5 w/v % mannitol solution. The compound at 0.05 mg/kg was subcutaneously administered at day 1 and then at 0.15 mg/kg at day 4. Body weight was measured once during the pre-dosing period and on day 1, 4, 8, 11 and 15. Food intake was measured every day during the experimental period.

Series [2] concerns Male KKA^y mice. Kind of series: Repeated administration in KKA^y mice. Format: in vivo, mouse. To be noted: for ALT / AST / TC / TG: plasma, mean ± SD. How it is done:
Male KKA^y mice (10 weeks old) were divided into the groups based on the data of body weight, food intake, glycated hemoglobin (GHb), and plasma parameters. P41 was subcutaneously administered once a day for 4 weeks. Compounds were dissolved in 10% DMSO/saline. Body weight and food intake were monitored during the study. After the study, blood was collected and GHb and plasma parameters were measured. The animals were sacrificed, and the liver and the adipose tissues were dissected and weighed. Lipid was extracted from a piece of liver tissue and liver triglyceride (TG) content was measured.
Plasma glucose and TG were measured by Autoanalyzer 7180 (Hitachi High-Technologies Corporation, Japan). Blood GHb was measured with the automated GHb analyzers (HLC-723G8, Tosoh, Tokyo, Japan). Plasma insulin was measured with ELISA Assay kit (Shibayagi Co. Ltd., Japan). Liver TG content was measured as follows: a piece of tissue was homogenized in saline and lipid was extracted by the addition of hexane:isopropanol (3:2) solution. The lipid phase was collected, dried and then dissolved in isopropanol. The concentration of TG was measured by Triglyceride E-test (Wako Pure Chemical Industries) and TG content per g liver was calculated.

Setting [3] is: 10 nmol/kg s.c. once a day for 4 weeks.
Where [4] appears, read: 30 nmol/kg s.c. once a day for 4 weeks.
Setting [5] is: 100 nmol/kg s.c. once a day for 4 weeks.
The mark [6] stands for this setting: 10, 30 and 100 nmol/kg s.c. once a day for 4 weeks.

Square brackets hold non-standard residues; d marks the D form. Side chains are listed from the residue outwards. Peptide text beside a SMILES is read from it. * marks the point of attachment. NMeY = CN[C@@H](Cc1ccc(O)cc1)C(=O)O; Palmitoyl = CCCCCCCCCCCCCCCC(=O)*; αMeF = C[C@](N)(Cc1ccccc1)C(=O)O; Iva = CC[C@](C)(N)C(=O)O; Aib = CC(C)(N)C(=O)O Where only a bound is given, the exact number is not on record here.

On to `CCCCCCCCCCCCCCCC(=O)NCC(=O)NCC(=O)NCC(=O)NCC(=O)NCCCC[C@H](NC(=O)[C@H](CC(=O)O)NC(=O)[C@H](CO)NC(=O)[C@@H](NC(=O)[C@](C)(Cc1ccccc1)NC(=O)[C@@H](NC(=O)CNC(=O)[C@H](CCC(=O)O)NC(=O)C(C)(C)NC(=O)[C@H](Cc1ccc(O)cc1)NC)[C@@H](C)O)[C@@H](C)O)C(=O)N[C@@H](CO)C(=O)N[C@H](C(=O)NC(C)(C)C(=O)N[C@@H](CC(C)C)C(=O)N[C@@H](CCC(=O)O)C(=O)N[C@@H](CCCCN)C(=O)N[C@@H](CCC(N)=O)C(=O)N[C@@H](CCCNC(=N)N)C(=O)N[C@@H](CCC(N)=O)C(=O)N[C@@](C)(CC)C(=O)N[C@@H](CCC(=O)O)C(=O)N[C@@H](Cc1ccccc1)C(=O)N[C@H](C(=O)N[C@@H](CCCNC(=N)N)C(=O)N[C@@H](Cc1c[nH]cn1)C(=O)N[C@@H](CC(C)C)C(=O)N[C@@H](CC(C)C)C(=O)N[C@@H](CC(N)=O)C(=O)N[C@@H](CCCCN)C(=O)NC(C)(C)C(=O)N[C@H](C(=O)N[C@@H](CCCNC(=N)N)C(=O)N[C@@H](CCC(N)=O)C(=O)N[C@@H](CCCNC(=N)N)C(=O)N[C@@H](Cc1ccc(O)cc1)C(N)=O)[C@@H](C)O)C(C)C)[C@@H](C)CC` [Example 41] (H-[NMeY][Aib]EGT[αMeF]TSDK([Gly-Gly-Gly-Gly-Palmitoyl])SI[Aib]LEKQRQ[Iva]EFVRHLLNK[Aib]TRQRY-NH2), for which the food consumption entry in series [1] (0.05 and 0.15 mg/kg (ca. 10 and 30 nmol/kg) s.c., one male and one female) is given as “almost completely abolished food consumption”. For the same molecule, the “duration of inhibitory effect of food consumption” value in series [1] (0.05 and 0.15 mg/kg s.c.) is listed as at least 2 days. Also, in series [1] (0.05 and 0.15 mg/kg s.c., throughout the experimental period), the vomiting result was “did not induce vomiting”. Further, in series [2] (setting [3]), the “decrease in body weight compared with vehicle group” value (shortened to “decrease in body weight”) was found to be 4.2%, the ALT is on record as 31.3 ± 9.7 U/L, the AST is listed as 53.4 ± 11.9 U/L and the TC came out at 139.3 ± 19.0 mg/dL. For the same molecule, in series [2] (setting [3]), the TG turned out to be 357.1 ± 76.9 mg/dL. Besides, in series [2] (setting [4]), the “decrease in body weight” value is listed as 9.8%, the ALT amounted to 24.9 ± 2.1 U/L, the AST was found to be 48.9 ± 8.6 U/L and the TC was determined as 155.9 ± 20.1 mg/dL. This molecule also came in with a TG in series [2] (setting [4]) of 210.1 ± 53.3 mg/dL. For the same molecule, in series [2] (setting [5]), the “decrease in body weight” value came to 30.1%, the ALT stood at 21.7 ± 7.6 U/L, the AST came out at 52.6 ± 7.3 U/L and the TC is 131.4 ± 14.0 mg/dL. The molecule further came in with a TG in series [2] (setting [5]) of 138.1 ± 54.4 mg/dL. In series [2] (setting [6]), the “GHb, PG and plasma insulin levels” value was “dose-dependent and significant decrease”; the liver tissue weight result is reported as “Comparable reduction”.

The values are drawn from US10501516B2, “Peptide compound” (TAKEDA PHARMACEUTICAL COMPANY LIMITED, priority 2016, dated 2019).
